Measurements as given in patent publication EP4768489A1, “CYCLOBUTYL-CONTAINING COMPOUNDS” (Chia Tai Tianqing Pharmaceutical Group Co., Ltd., priority 2023, dated 2025).

Legend:
[1] = molecular target: T1, AR in LNCaP (T878A) cells (Homo sapiens, UniProt P10275, T878A); assay: Assay on degradation activity for AR in LNCaP (T878A) cells (HTRF); type: cell-based; conditions: maximum degradation rate, 24 h
T1 construct: Assay on degradation activity for AR in LNCaP (T878A) cells; endogenous in cells; host or cells: LNCaP cells
T1 sequence (P10275 1-920 T878A): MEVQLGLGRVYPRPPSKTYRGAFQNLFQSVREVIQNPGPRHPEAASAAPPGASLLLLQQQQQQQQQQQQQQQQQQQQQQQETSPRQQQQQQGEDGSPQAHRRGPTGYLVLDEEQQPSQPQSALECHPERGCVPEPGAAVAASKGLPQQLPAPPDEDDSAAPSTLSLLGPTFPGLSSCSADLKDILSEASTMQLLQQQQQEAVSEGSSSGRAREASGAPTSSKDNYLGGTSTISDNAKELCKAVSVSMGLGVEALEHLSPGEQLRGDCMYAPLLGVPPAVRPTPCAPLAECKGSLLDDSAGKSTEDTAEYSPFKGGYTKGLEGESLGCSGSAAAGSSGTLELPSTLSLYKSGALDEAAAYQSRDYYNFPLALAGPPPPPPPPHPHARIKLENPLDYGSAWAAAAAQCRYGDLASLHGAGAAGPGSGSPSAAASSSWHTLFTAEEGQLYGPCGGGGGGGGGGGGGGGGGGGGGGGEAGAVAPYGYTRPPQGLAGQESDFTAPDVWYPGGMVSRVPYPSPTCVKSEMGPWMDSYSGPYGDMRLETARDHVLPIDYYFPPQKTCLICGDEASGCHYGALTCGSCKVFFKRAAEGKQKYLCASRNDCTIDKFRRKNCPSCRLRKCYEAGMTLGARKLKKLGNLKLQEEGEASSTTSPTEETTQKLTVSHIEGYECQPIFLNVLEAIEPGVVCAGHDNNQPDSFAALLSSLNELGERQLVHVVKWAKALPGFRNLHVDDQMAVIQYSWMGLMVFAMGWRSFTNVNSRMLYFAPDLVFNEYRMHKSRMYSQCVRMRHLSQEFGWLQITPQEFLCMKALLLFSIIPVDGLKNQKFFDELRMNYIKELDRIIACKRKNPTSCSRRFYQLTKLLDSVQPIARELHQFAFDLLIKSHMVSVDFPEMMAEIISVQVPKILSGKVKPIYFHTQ
Method: The detection was carried out using the HTRF HUMAN ANDROGEN RECEPTOR DETECTION KIT (cisbio, 64ANDRPEG), 4× Supplemented Lysis buffer was prepared using the Blocking reagent stock solution (100×) and Lysis buffer stock solution (4×), and 1× Supplemented Lysis buffer was prepared using the 4× Supplemented Lysis buffer and ddH2O. Premixed antibody solutions were prepared using Detection buffer, Androgen Receptor Eu Cryptate antibody, and Androgen Receptor d2 antibody.
The cells were cultured overnight in a cell incubator. […] After the cells were oscillated for 40 min at room temperature, 16 µL of the cell lysis buffer was added to a 384-well plate, the Premixed antibody solutions were added at 4 µL/well, and the mixture was left to stand at 25 °C for 2 h. […] Table 2. Degradation activity of compounds for AR in LNCaP (T878A) cells

LNCaP (T878A) cells = assay: cells; conditions: Homo sapiens, 168 h
Method: LNCaP cells in a good growth state were taken, washed with PBS, and digested with pancreatin, and a phenol red-free 1640 complete medium containing 2% CSS-FBS was added to terminate the digestion. The cells were collected into a centrifuge tube, adjusted to a cell density of 1 × 10^5 cells/mL, and seeded in a 96-well plate (100 µL/well). Meanwhile, compounds were added using a nanoliter pipettor and subjected to a 2-fold gradient dilution such that the final concentrations of the compounds were 1000 nM-0.061 nM and 5000 nM-0.305 nM. 2 duplicate wells were set, and meanwhile, a control was set. After the cells were cultured in the cell incubator for another 168 h, the detection reagent CCK-8 (manufacturer: Dojindo, 10 µL/well) was added. After 2.0 h of incubation in the cell incubator, absorbance values at 450 nm were measured using a PerkinElmer Envision microplate reader, the four-parameter analysis was performed, the dose-response curves were fit, and IC50 was calculated.

[2] = In vitro liver microsome stability, mouse; type: in vitro ADME; conditions: mouse liver microsomes 0.5 mg/mL, 37 °C, NADPH
Method: Liver microsome incubation samples were prepared by mixing a PBS buffer (pH 7.4), a liver microsome solution (0.5 mg/mL), a test compound, and an NADPH + MgCl2 solution, followed by incubation at 37 °C and 300 rpm for 1 h. Zero-hour samples were prepared by mixing a PBS buffer (pH 7.4), a liver microsome solution (0.5 mg/mL), and a test compound. […]

[3] = tested on: MDA-PCA-2B (L702H\T878A) cells; assay: Assay on inhibitory activity for MDA-PCA-2B (L702H\T878A) cell proliferation (CCK-8); type: cell-based; conditions: 168 h
Source text: Table 7. Inhibitory activity of compounds for MDA-PCA-2B (L702H\T878A) cell proliferation

in vivo = conditions: mouse
Method: ICR mice weighing 18-22 g were randomized into groups of 9 after 3-5 days of acclimatization. The mice in the intragastric administration group were intragastrically given the test compound solution at a dose of 10 mg/kg (20 mg/kg or 30 mg/kg), and the mice in the intravenous injection administration group were intravenously injected with the test compound solution at a dose of 1 mg/kg.
Blood was collected from the orbit to prepare plasma samples to be tested.
30 µL of each of the plasma samples to be tested and a standard curve sample were taken, and an acetonitrile solution containing an internal standard was added. Supernatants were obtained by protein precipitation, diluted with a 1:1 (v:v) mixed solution of acetonitrile and water, and then assayed by LC/MS/MS. Data were fitted using a non-compartmental model.

22RV1 (H875Y/ARV7) cells = assay: Assay on inhibitory activity for 22RV1 (H875Y/ARV7) cell proliferation (CellTiter-Glo); type: cell-based; conditions: Homo sapiens, 168 h
Method: After 10 min of incubation at room temperature, the mixture was transferred to a white plate at 100 µL/well. […] Table 6. Inhibitory activity of compounds for 22RV1 (H875Y/ARV7) cell proliferation

Compound | Dmax [1] [%] | IC50 (LNCaP (T878A) cells) [nM] | MLM (mouse) Remaining amount at 60 min % [2] [%] | IC50 [3] [nM] | AUC at 48 h (in vivo; iv, 1 mg/kg) [ng·h/mL] | Vd (in vivo; iv, 1 mg/kg) [L/kg] | clearance (in vivo; iv, 1 mg/kg) [mL/min/kg] | half-life (in vivo; iv, 1 mg/kg) [h] | AUC at 48 h (in vivo; po, 10 mg/kg) [ng·h/mL] | Cmax (in vivo; po, 10 mg/kg) [ng/mL] | half-life (in vivo; po, 10 mg/kg) [h] | IC50 (22RV1 (H875Y/ARV7) cells) [nM]
COc1cc(O[C@H]2C(C)(C)[C@H](NC(=O)c3cnc(N4CCC(CN5CCc6c(ccc7c(C8CCC(=O)NC8=O)noc67)C5)CC4)nc3)C2(C)C)ccc1C#N (some centres unmarked) [Compound 4] | > 90 | < 50 | >70 | < 500 | 7730 | 2.14 | 1.97 | 10.5 | 39000 | 1360 | 11.7 | < 500
COc1cc(O[C@H]2C(C)(C)[C@H](NC(=O)c3ccc(N4CCC(CN5CCc6c(ccc7c(C8CCC(=O)NC8=O)noc67)C5)CC4)nn3)C2(C)C)ccc1C#N (some centres unmarked) [Compound 6] | > 90 | < 50 | >70 | – | – | – | – | – | – | – | – | –
COc1cc(O[C@H]2C(C)(C)[C@H](NC(=O)c3ccc(N4CCC(CN5CCc6c(ccc7c(C8CCC(=O)NC8=O)noc67)C5)CC4)nc3)C2(C)C)ccc1C#N (some centres unmarked) [Compound 3] | > 90 | < 50 | >70 | < 500 | – | – | – | – | – | – | – | < 500
COc1cc(O[C@H]2C(C)(C)[C@H](NC(=O)c3cnc(N4CCC(CN5CCc6c(ccc7c(C8CCC(=O)NC8=O)noc67)C5)CC4)cn3)C2(C)C)ccc1C#N (some centres unmarked) [Compound 5] | > 90 | < 50 | >70 | < 500 | 4340 | 3.79 | 3.5 | 9.91 | 22100 | 1010 | 9.72 | < 500
COc1cc(O[C@H]2C(C)(C)[C@H](NC(=O)c3ccc(N4CCC(CN5CCc6c(ccc7c(C8CCC(=O)NC8=O)noc67)C5)CC4)cc3)C2(C)C)ccc1C#N (some centres unmarked) [Compound 1] | > 90 | < 50 | >70 | < 500 | 8380 | 2.13 | 1.78 | 13.9 | 26800 | 786 | 24.9 | < 500
